According to patent publication US9456589B2, “Elasmobranch-repelling compounds and methods of use” (priority 2005, dated 2016):
“And” between values parts separate entries of the source, which are not always exact repeats. Equal entries are not always repeated. “Also recorded” adds a separate entry of the source.

Legend:
[1] = tested on: Caribbean reef and blacknose sharks; test: Cloud Dispersion Assay on competitively feeding sharks; type: in vivo, C. perezii, C. acronotus; conditions: 290 microliters
From the text: Another bioassay used to observe a flight response in sharks is a cloud dispersion assay on competitively feeding population of sharks. This assay is referred to as a “Cloud Dispersion Assay” or “Cloud Assay.” A pressurized fluid delivery system was designed to deliver repellent into large feeding populations of sharks. The repellent is released as a subsurface cloud, which follows the current. A 1 L plastic container containing the test chemical repellent solution is pressurized to approximately 20 psig with a battery compressor or hand pump. A globe valve is used to hold back the fluid. The fluid is delivered to the end of a long PVC pole using a Teflon tubing. This allows the operator to place the tip of the pole well into a population of feeding sharks. By actuating the small globe valve, a cloud of the chemical solution is released quickly and reliably into the feeding population. Controls are established using FD&C Red 40 dye and seawater, uncolored seawater, and air. These controls establish that sharks are not afraid to approach the delivery pole, nor are sharks deterred from feeding by the jet of control fluid or air.
In each assay disclosed herein, a control of sea water was performed prior to the testing of each test repellent. In the control, sea water was delivered to the shark to be tested in the same delivery manner as the test repellent was delivered. […]

nurse sharks [2] = test: Tonic immobility, Bite Assay; type: in vivo, C. cirratum
Method: One bioassay used to observe and measure flight response is the tonic immobility test. Tonic immobility is a state of paralysis that typically occurs when a shark is subject to inversion of its body along the longitudinal axis. This state is called “tonic,” and the shark can remain in this state for up to 15 minutes thereby allowing researchers to observe effects of chemical repellents. The “tonic” state of the shark is first established by releasing seawater in proximity to the “tonic” shark with the same delivery instrument and at the same distance as a “test” repellent compound will be released. Some controls are released with a high flow rate (30 mL/sec) in order to establish that sharks are not awakened by a jet of fluid over their noses. Once behavioral controls are established, a compound or composition that may have a repelling effect is delivered to the shark. […] Using this tonic immobility bioassay researches can quantify the strength of a repellent effect. […]
In Bite Assays, a dose of typically less than 5 mL of 3-methylbutanal was presented directly into the shark's mouth using a pipette. […] Because the delivery was directly into the shark's mouth and responses were generally observed immediately upon delivery, time to response was not recorded.

[3] = tested on: sharks (lemon, nurse, blacknose, blacktip pooled); test: Tonic immobility, Syringe Assay, summary over species; type: in vivo
Method: (§1) One bioassay used to observe and measure flight response is the tonic immobility test. Tonic immobility is a state of paralysis that typically occurs when a shark is subject to inversion of its body along the longitudinal axis. This state is called “tonic,” and the shark can remain in this state for up to 15 minutes thereby allowing researchers to observe effects of chemical repellents. The “tonic” state of the shark is first established by releasing seawater in proximity to the “tonic” shark with the same delivery instrument and at the same distance as a “test” repellent compound will be released. Some controls are released with a high flow rate (30 mL/sec) in order to establish that sharks are not awakened by a jet of fluid over their noses. Once behavioral controls are established, a compound or composition that may have a repelling effect is delivered to the shark. If the compound or composition engenders a flight response, the shark will awaken from the tonic state and rapidly attempt to flee the delivered repellent. Using this tonic immobility bioassay researches can quantify the strength of a repellent effect.
A second delivery method called the “Syringe Assay” method delivered a dose of 60 mL or more of a test chemical repellent from at least one foot, and up to as many as five feet, from a shark. The distance of delivery was determined based on the strength of the water current in the direction of the shark. Time from delivery of the test substance until response was observed, measured and recorded. The “Syringe” method allows a researcher to observe how a diffusing and diluting cloud of test chemical repellent affects the shark's behavior when the shark encounters the delivered cloud of test substance. The “Syringe” method requires relatively large doses because of the diffusion of the cloud over time and distance. Time from delivery to response is related to the size of the bolus delivered from the syringe, distance of the shark from the syringe and water current.
In the Syringe assay about 60 mL or more of valeraldehyde was delivered from one to as many as five feet from the shark depending on the water current. […] Time from delivery to response was related to the size of the bolus delivered from the syringe, distance of the shark from the syringe and water current.

lemon sharks [4] = conditions: Table 24; lemon shark; swab delivery
nurse sharks [5] = test: Tonic immobility, Hd Syringe Assay; type: in vivo, C. cirratum; conditions: nurse; Hd syringe
Method: as §1
Lemon, nurse, blacktip and tiger sharks were placed in tonic immobility by inverting the shark's body along its longitudinal axis. […]

nurse sharks [6] = test: Tonic immobility, Micropipette Assay; type: in vivo, C. cirratum; conditions: nurse; micropipette; 270 ul
Method: as §1
(§2) A fourth method of delivery was called the “Micropipette Assay” method of delivery. In this method, a very small dose (fraction of a mL) of a test substance was delivered directly into a shark's mouth. […] A response, such as a cough or other notable action of the shark, was usually noted when effective gustatory repellents were delivered directly into a shark's mouth while in tonic immobility.
The Micropipette Assay method has not proven to be a particularly effective method of assaying for a flight response in elasmobranchs. The Micropipette Assay method is, nevertheless, an excellent method for specifying that a gustatory response has occurred. It is effective for specifying a gustatory response because the micropipette delivery method allows direct delivery of an entire bolus of test substance into the mouth of the shark being tested. […]

nurse sharks [7] = test: Tonic immobility, Syringe 3/5/10 Assay; type: in vivo, C. cirratum; conditions: juvenile nurse sharks
lemon sharks [8] = test: Tonic immobility, Micropipette Assay; type: in vivo, N. brevirostris; conditions: lemon / juvenile sharks; micropipette
Method: as §1, §2
The Micropipette Assay method has not proven to be a particularly effective method of assaying for a flight response in elasmobranchs. The Micropipette Assay method is, nevertheless, an excellent method for specifying that a gustatory response has occurred. It is effective for specifying a gustatory response because the micropipette delivery method allows direct delivery of an entire bolus of test substance into the mouth of the shark being tested.
Using a microliter syringe or microliter pipette, a bolus of test chemical can be directed precisely into one of the shark's nares, or its mouth. […] Olfactory repellents will terminate tonic immobility almost immediately when injected into a nare of the shark.
(§3) Lemon, nurse, blacktip and tiger sharks were placed in tonic immobility by inverting the shark's body along its longitudinal axis. […] The “tonic” state of each shark was first established by releasing a control of seawater in proximity to the shark with the same delivery instrument and at the same distance as the chemical repellent would later be delivered. In certain controls, sea water was released with a high flow rate (30 mL/sec) in order to establish that the sharks would not be awakened by a jet of fluid over their noses.
(§4) Once behavioral controls were established, the chemical repellent was delivered to the shark using the Hd Syringe Assay method, the Syringe 3/5/10 Assay method, the Bite Assay method or the Micropipette Assay method. […] If tonic immobility was terminated, the positive response was denoted as “Y.” If tonic immobility was not terminated but a behavior change within tonic immobility was noted, such as the opening of the mouth or a cough, the response was denoted as an “R” for reduced response. If no behavior change was observed, the negative response was denoted “N.”
Further because the Micropipette assays were often done serially on the same set of sharks, second and third doses of the repellent over time would be expected to evoke less of a reaction. Nevertheless, the small doses delivered to the shark in the Micropipette assay provide important data on whether a compound is a gustatory stimulant because the small dose may be delivered directly into the mouth of the shark. This eliminates any olfactory response that might be acting in concert with a gustatory response to terminate tonic immobility.

blacktip sharks = test: Tonic immobility, Syringe 3/5/10 Assay; type: in vivo, C. limbatus
Method: as §1
In the tonic immobility studies disclosed herein, several different methods were employed for delivery of repelling compounds. A first method for delivery of chemical repellent in tonic immobility studies employed a “Syringe 3/5/10 Assay” method. The “Syringe 3/5/10 Assay” method is so named because a test repellent is delivered to a shark from a distance of about “3” inches with a bolus of about “5” mL with a response to the test repellent considered positive if the shark reacts with a change in behavior within less than about “10” seconds from the time of delivery.
The “3/5/10 Syringe Assay” as employed herein delivered a dose of 5-6 mL of a test chemical repellent from a syringe fixed with a needle having a gauge of about 22 from a distance at least 3 inches in front of a shark. Because the test chemical repellent was delivered at a distance from the shark's nares and mouth, a cloud of test chemical repellent was dispersed over the shark within the water column. The dispersed test repellent was subject to water current direction, dispersion and dilution. As a result, a flight response within 10 seconds was considered a positive repellency response. […] Time from delivery to response is related to the size of the bolus delivered from the syringe, distance of the shark from the syringe and water current.
as §3, §4
In Syringe 3/5/10 Assays, 5-6 mL of 3-methylbutanal was delivered at least 3 inches in front of the shark's mouth. A cloud of the repellent dispersed over the shark within the water column. […] As noted above, because the dispersion of the chemical repellent upon delivery is affected by volume of repellent, water current, and other factors, the time between delivery and response was not correlatable with the potency of the repellent. […]

lemon sharks [9] = test: Tonic immobility, Hd Syringe Assay; type: in vivo, N. brevirostris; conditions: lemon; Hd syringe
Method: as §1, §3
Once behavioral controls were established, the chemical repellent was delivered to the shark using the Hd Syringe Assay method, the Syringe 3/5/10 Assay method, the Bite Assay method or the Micropipette Assay method. […]

tiger sharks = test: Tonic immobility, Syringe 3/5/10 Assay; type: in vivo, G. cuvieri; conditions: tiger shark
Method: as §1
In the tonic immobility studies disclosed herein, several different methods were employed for delivery of repelling compounds. A first method for delivery of chemical repellent in tonic immobility studies employed a “Syringe 3/5/10 Assay” method. […]

Question: How did the “Cloud/Cage N (no response)” value [1] turn out when CC(=O)C(C)=O [2,3-butanedione] was run?
Answer: The value was “no response and 1/1”.

Question: What about the “Bite Y (termination of tonic immobility), trials of trials” value (nurse sharks [2]) of the same molecule?
Answer: The value was “terminated and 1/1”.

Question: And the “Syringe N (no response), trials of trials” value [3]?
Answer: The value was 1/8.

Question: And the “Syringe R (behavior response within tonic immobility), trials of trials” value [3]?
Answer: The value was “behavioral response”.

Question: What about the “Syringe Y (termination of tonic immobility), trials of trials” value [3] of the same molecule?
Answer: Its value is “seven of eight and 7/8”.

Question: Which “T? (termination of tonic immobility)” value (lemon sharks [4]) does the source give for O=C(O)CCC(=O)O [succinic acid] here?
Answer: The value was “N”.

Question: Which “Comments (behavior observed)” value (nurse sharks [5]) does the source give for CCC(C=O)CC [diethylacetaldehyde] here?
Answer: Its value is “cough”.

Question: And the “Response (time from delivery to response)” value (nurse sharks [6])?
Answer: Its value is 1 s.

Question: And the “Syringe 3/5/10 assays terminating tonic immobility” value (nurse sharks [7])?
Answer: Its value is “six of six”.

Question: And the “Comments (behavior observed)” value (lemon sharks [8])?
Answer: The value was “blinked; also recorded: cough”.

Question: And the “Syringe 3/5/10 assays terminating tonic immobility” value (blacktip sharks; blacktip sharks)?
Answer: Its value is “two of four”.

Question: And the “Syringe 3/5/10 assays with behavioral response” value (blacktip sharks; blacktip sharks)?
Answer: The value was “behavioral response”.

Question: And the “Syringe 3/5/10 assays with no response” value (blacktip sharks; blacktip sharks)?
Answer: The value was “no response”.

Question: And the “Comments (behavior observed)” value (blacktip sharks; blacktip, syringe 3/5/10)?
Answer: The value was “cough/tensed”.

Question: What about the “Comments (behavior observed)” value (lemon sharks [9]) of the same molecule?
Answer: Its value is “cough”.

Question: And the “Syringe 3/5/10 assay outcome” value (tiger sharks)?
Answer: The value was “terminated”.
